Structures are written as SMILES. Values after ≈ are worked out from the molar mass of the structure shown.

The results in this text go back to patent US9458146B2, “Crystalline sodium salt of an HIV integrase inhibitor” (SANDOZ AG, priority 2011, dated 2016).

Series [1] can be described thus: Solubility and stability of form A in water. Format: physicochemical. The following applies: 22±2° C. Here is the method: 104 mg of raltegravir sodium salt form A is suspended in 1.0 ml water and the suspension placed on a laboratory shaker at 22±2° C. for 24 hours at a rate of 400 rpm. After 24 hours shaking the suspension is filtered, the obtained solid investigated by powder X-ray diffraction, and the concentration in the liquid phase is determined by UV-vis spectroscopy.

A short description of series [2]: Storage of form A at elevated temperature. Format: physicochemical.

Take `Cc1nnc(C(=O)NC(C)(C)c2nc(C(=O)NCc3ccc(F)cc3)c(O)c(=O)n2C)o1` [form A, N-(4-fluorobenzyl)-5-hydroxy-1-methyl-2-(1-methyl-1-{[(5-methyl-1,3,4-oxadiazol-2-yl)carbonyl]amino}ethyl)-6-oxo-1,6-dihydropyrimidine-4-carboxamide]: the solubility in series [1] (22 °C, thermodynamic from solid, suspended in water, 24 hours shaking, resulting pH 10.4, UV-vis, read-out: aqueous solubility (concentration in the liquid phase)) amounted to 47 ± 5 mg/mL (≈ 106 mM). Also, in series [1] (suspension in water, 24 hours), the “crystalline form of the solid after suspension in water (XRPD)” value is recorded as “form A is retained” and the “pH of the liquid phase” value came out at 10.4. In addition, in series [1] (suspension in water, 24 hours, listed as raltegravir sodium salt form A), the “crystalline form of the solid after suspension in water (XRPD)” value is reported as “crystalline form A is retained”. Moreover, the “thermal stability on storage” value in series [2] is recorded as “without decomposition”.
